Data on 20 molecules can be found in patent publication US10821100B2, “Triazolone compounds as mPGES-1 inhibitors” (Glenmark Pharmaceuticals S.A., priority 2012, dated 2020).

Some results are limits rather than exact numbers.

For the assay, the target named is T1, Recombinant human mPGES-1 (Homo sapiens, UniProt O14684).
T1 construct: made in house; host or cells: CHO cells (crude microsomal fractions)
T1 sequence (O14684 1-152): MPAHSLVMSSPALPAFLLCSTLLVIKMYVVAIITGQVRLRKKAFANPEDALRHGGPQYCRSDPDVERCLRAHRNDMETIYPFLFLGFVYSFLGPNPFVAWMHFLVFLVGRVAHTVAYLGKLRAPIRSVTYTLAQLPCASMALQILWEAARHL
The assay is described as follows: In-vitro screening of mPGES-1 inhibitors (inhibition of PGE2 formation from PGH2, HTRF detection). Conditions: mPGES-1 enzyme; for inhibition at 1 µM: 1 μM test compound, read-out: Percentage inhibition at 1 μM; for inhibition at 1 µM / inhibition at 10 µM: crude microsomal fractions; for inhibition at 10 µM: 10 μM test compound, read-out: Percentage inhibition at 10 μM; for IC50: class symbols. It is filed as biochemical. A digest of the protocol:
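PGH2-to-PGE2 isomerization run for 1 min with 15 μM PGH2 after 10 min compound preincubation with microsomal enzyme (40–60 μg/mL) and 2.5 mM GSH, pH buffer 0.1 M potassium phosphate with EDTA. Stannous chloride quench, HTRF PGE2 readout, IC50 fitted against uninhibited reaction.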
Background: TR-FRET usually uses a lanthanide donor and a delayed reading to cut background.

As a reminder, the inhibition is the relative decrease from the control value, in per cent. Usually IC50 stands for the midpoint of a concentration-inhibition curve. `CC(C)(CF)C(=O)NCc1cnc(C(F)F)c(-c2nn(-c3ccc(C(F)(F)F)cc3)c(=O)[nH]2)c1` [Example-192, 3-Fluoro-N-((6-(difluoromethyl)-5-(1-(4-(trifluoromethyl)phenyl)-4,5-dihydro-5-oxo-1H-1,2,4-triazol-3-yl)pyridin-3-yl)methyl)-2,2-dimethylpropanamide]: the inhibition at 1 µM is 99.3%, the inhibition at 10 µM was found to be 99.3% and the 50% inhibitory concentration (IC50) was less than 50 nM.

Consider `CC(C)(C)C#Cc1ccc(-c2nn(-c3cc(CNC(=O)C(C)(C)C)c(F)cc3Cl)c(=O)[nH]2)cc1` [Example-137, N-(4-Chloro-2-fluoro-5-(4,5-dihydro-3-(4-(3,3-dimethylbut-1-ynyl)phenyl)-5-oxo-1,2,4-triazol-1-yl)benzyl)pivalamide], for which the inhibition at 1 µM is 93.4%, the inhibition at 10 µM worked out at 93.1% and the IC50 was less than 50 nM.

Take `Cc1cc(-n2nc(-c3cc(CNC(=O)C(C)(C)C)ccc3Cl)[nH]c2=O)ccc1Cl` [Example-154, N-(4-Chloro-3-(1-(4-chloro-3-methylphenyl)-4,5-dihydro-5-oxo-1H-1,2,4-triazol-3-yl)benzyl)pivalamide]: the inhibition at 1 µM was determined as 95.2%, the inhibition at 10 µM was 100% and the concentration for half-maximal inhibition (IC50) was less than 50 nM.

With `CC(C)(C)C(=O)NCc1ccc(Cl)c(-c2nn(-c3ccc(Cl)c(F)c3)c(=O)[nH]2)c1` [Example-123, N-(4-Chloro-3-(1-(4-chloro-3-fluorophenyl)-4,5-dihydro-5-oxo-1H-1,2,4-triazol-3-yl)benzyl)pivalamide], the inhibition at 1 µM is 93.8%, the inhibition at 10 µM was determined as 100% and the IC50 was less than 50 nM.

Take `O=c1[nH]c(-c2cc(S(=O)(=O)NC3CC3)ccc2Cl)nn1-c1ccc(Cl)cc1` [Example-97, 4-Chloro-3-(1-(4-chlorophenyl)-5-oxo-4,5-dihydro-1H-1,2,4-triazol-3-yl)-N-cyclopropylbenzenesulfonamide]: the inhibition at 1 µM worked out at 20.2% and the inhibition at 10 µM was 6.88%.

`COc1cc(-n2nc(-c3cc(CNC(=O)C4CC4)ccc3Cl)[nH]c2=O)ccc1C(=O)Nc1ccc(F)c(C(F)F)c1` [Example-63, 4-(3-(2-Chloro-5-(cyclopropanecarboxamidomethyl)phenyl)-5-oxo-4,5-dihydro-1H-1,2,4-triazol-1-yl)-N-(3-(difluoromethyl)-4-fluorophenyl)-2-methoxybenzamide]: the inhibition at 1 µM stood at 92.4%, the inhibition at 10 µM is 94.8% and the IC50 is less than 50 nM.

Take `Cc1ccc(CNC(=O)C(F)(F)F)c(C)c1-c1nn(-c2ccc(C(F)(F)F)cc2)c(=O)[nH]1` [Example-106, N-(3-(1-(4-(trifluoromethyl)phenyl)-4,5-dihydro-5-oxo-1H-1,2,4-triazol-3-yl)-2,4-dimethylbenzyl)-2,2,2-trifluoroacetamide]: the inhibition at 1 µM stood at 92%, the inhibition at 10 µM was found to be 96.8% and the IC50 is more than 100 nM.

Turning to `CC(C)(C)C(=O)NCc1ccc(Cl)c(-c2nn(-c3cc(F)cc(C(F)(F)F)c3)c(=O)[nH]2)c1` [Example-156, N-(4-Chloro-3-(1-(3-fluoro-5-(trifluoromethyl)phenyl)-4,5-dihydro-5-oxo-1H-1,2,4-triazol-3-yl)benzyl)pivalamide], the inhibition at 1 µM stood at 98.5%, the inhibition at 10 µM worked out at 99.2% and the 50% inhibitory concentration (IC50) is less than 50 nM.

`CC(C)C(=O)NCc1ccc(Cl)c(-c2nn(-c3ccc(C(F)(F)F)cc3)c(=O)[nH]2)c1` [Example-144, N-(4-Chloro-3-(1-(4-(trifluoromethyl)phenyl)-4,5-dihydro-5-oxo-1H-1,2,4-triazol-3-yl)benzyl)isobutyramide]: the inhibition at 1 µM came to 97.5%, the inhibition at 10 µM is 92.7% and the IC50 is less than 50 nM.

On to `COc1cc(-n2nc(-c3c(F)cccc3Cl)[nH]c2=O)ccc1C(=O)Nc1nc2ccc(F)cc2s1` [Example-45, 4-(3-(2-Chloro-6-fluorophenyl)-5-oxo-4,5-dihydro-1H-1,2,4-triazol-1-yl)-N-(6-fluorobenzo[d]thiazol-2-yl)-2-methoxybenzamide], for which the inhibition at 1 µM is 81.7%, the inhibition at 10 µM was 90.1% and the half-inhibitory concentration (IC50) is less than 50 nM.

For `COc1ccc(-n2nc(-c3c(F)cccc3Cl)[nH]c2=O)cc1C(=O)NCC1CC1` [Example-19, 5-[3-(2-Chloro-6-fluorophenyl)-5-oxo-4,5-dihydro-1H-1,2,4-triazol-1-yl]-N-(cyclopropylmethyl)-2-methoxybenzamide], the inhibition at 1 µM worked out at 5.11% and the inhibition at 10 µM is 29.7%.

As to `CC(C)(C)C(=O)NCc1ccc(Cl)c(-c2nn(C(C)(C)C)c(=O)[nH]2)c1` [Example-121, N-(3-(1-tert-Butyl-4,5-dihydro-5-oxo-1H-1,2,4-triazol-3-yl)-4-chlorobenzyl)pivalamide], the inhibition at 1 µM was 16.3% and the inhibition at 10 µM turned out to be 72.5%.

Regarding `CC(C)(C)C(=O)NCc1ccc(Cl)c(-c2nn(-c3ccc(C#CC4CC4)cc3)c(=O)[nH]2)c1` [Example-167, N-(4-Chloro-3-(1-(4-(2-cyclopropylethynyl)phenyl)-4,5-dihydro-5-oxo-1H-1,2,4-triazol-3-yl)benzyl)pivalamide], the inhibition at 1 µM was found to be 99%, the inhibition at 10 µM amounted to 98.4% and the IC50 is less than 50 nM.

`CC(C)(C)C(=O)NCc1ccc(Cl)c(-c2nn(-c3ccc(Cl)cc3)c(=O)[nH]2)c1F` [Example-98, N-(4-Chloro-3-(1-(4-chlorophenyl)-5-oxo-4,5-dihydro-1H-1,2,4-triazol-3-yl)-2-fluorobenzyl)pivalamide]: the inhibition at 1 µM was determined as 97.5%, the inhibition at 10 µM came out at 99.5% and the IC50 is less than 50 nM.

For the molecule `CC(C)(C)C(=O)NCc1ccc(Cl)c(-n2nc(-c3c(F)cccc3Cl)[nH]c2=O)c1F` [Example-88, N-(4-Chloro-3-(3-(2-chloro-6-fluorophenyl)-5-oxo-4,5-dihydro-1H-1,2,4-triazol-1-yl)-2-fluorobenzyl)pivalamide], the inhibition at 1 µM is 3.34% and the inhibition at 10 µM is 39.2%.

Turning to `COc1cc(-n2nc(-c3cc(CNC(=O)C4CC4)ccc3Cl)[nH]c2=O)ccc1C(=O)Nc1cccc(C(F)F)c1` [Example-68, 4-(3-(2-Chloro-5-(cyclopropanecarboxamidomethyl)phenyl)-5-oxo-4,5-dihydro-1H-1,2,4-triazol-1-yl)-N-(3-(difluoromethyl)phenyl)-2-methoxybenzamide], the inhibition at 1 µM worked out at 97.4%, the inhibition at 10 µM came out at 96.4% and the IC50 is less than 50 nM.

For `O=c1[nH]c(-c2c(F)cccc2Cl)nn1-c1ccc(C#Cc2cccc(Cl)c2F)cc1` [Example-12, 1-(4-((3-Chloro-2-fluorophenyl)ethynyl)phenyl)-3-(2-chloro-6-fluorophenyl)-1H-1,2,4-triazol-5(4H)-one], the inhibition at 1 µM was 84.8%, the inhibition at 10 µM was 87.5% and the IC50 is less than 50 nM.

Consider `O=C(NCc1ccc(Cl)c(-n2nc(-c3ccc(C(F)(F)F)cc3F)[nH]c2=O)c1)C1CC1` [Example-92, N-(4-Chloro-3-(3-(2-fluoro-4-(trifluoromethyl)phenyl)-5-oxo-4,5-dihydro-1H-1,2,4-triazol-1-yl)benzyl)cyclopropanecarboxamide], for which the inhibition at 1 µM is 76%, the inhibition at 10 µM was found to be 99.4% and the half-inhibitory concentration (IC50) was more than 100 nM.

Take `COc1cc(-n2nc(-c3c(Cl)cccc3Cl)[nH]c2=O)ccc1C(=O)Nc1cc(CNC(=O)C2CC2)ccc1Cl` [Example-64, N-(2-Chloro-5-(cyclopropanecarboxamidomethyl)phenyl)-4-(3-(2,6-dichlorophenyl)-5-oxo-4,5-dihydro-1H-1,2,4-triazol-1-yl)-2-methoxybenzamide]: the inhibition at 1 µM came to 28.9% and the inhibition at 10 µM was 63.8%.

For the molecule `COc1cc(-n2nc(-c3c(Cl)cccc3Cl)[nH]c2=O)ccc1C(=O)Nc1cccc(C(F)(F)F)c1` [Example-42, 4-(3-(2,6-Dichlorophenyl)-5-oxo-4,5-dihydro-1H-1,2,4-triazol-1-yl)-2-methoxy-N-(3-(trifluoromethyl)phenyl)benzamide], the inhibition at 1 µM was 96.5%, the inhibition at 10 µM was found to be 99.7% and the 50% inhibitory concentration (IC50) is less than 50 nM.
